This is an account of results in patent US7141249B2, “Rapidly soluble drug composition” (Dainippon Sumitomo Pharma Co., Ltd., priority 1997, dated 2006).

Series [1] can be described thus: Water-solubility of AS-3201. Format: physicochemical. The settings on record: in the range of low pH. An excerpt:
The “micronized AS-3201” means powders of AS-3201 having a mean particle size of less than about 20 μm. The “mean particle size” means a particle size of being at 50% in cumulative particle distribution on weight or volume basis (ref., HA Lieberman et al., “Pharmaceutical Dosage Forms: Tablets”, Marcel Dekker, Inc., New York, 1990, vol. 2, 174–186; Kouichi IINOYA (edit.) “Handbook of Powder and Particle Measurement (in Japanese)”, The NIKKAN KOGYO SHINBUN LTD., 1981, 29–36). The “dissolution test” means a test in which the dissolution of AS-3201 from test pharmaceutical compositions in an amount corresponding to 20 mg of AS-3201 is evaluated according to Paddle method (50 rpm) specified in the Twelfth Edition of the Pharmacopoeia of Japan, using a 0.2 M phosphate buffer (pH 6.5, 900 ml) as a test solution, and assaying AS-3201 by spectrophotometry at 300 nm. The “pKa1” means an acid dissociation exponent of an acidic substance at 25° C. in an infinitely diluted solution thereof. When an acidic substance is a polybasic acid, it means an acid dissociation exponent at the first step of dissociation. The “water-solubility” means a maximum amount of a solute being dissolved in 100 ml of water. The term “about” is used with the intention of including values following said term.

A short description of the next series: Acidity (pKa) of AS-3201. The series is classed as physicochemical.
Series [2] is described as follows: Plasma concentration after administration. The series is classed as in vivo. The settings on record: among the individuals to be administered.
Another series concerns the target aldose reductase (Homo sapiens, UniProt P15121). The settings on record: disclosed in earlier patents (U.S. Pat. No. 5,258,382, JP-A-6-192222, JP-A-8-176105); cited from earlier work.

A word on the pKa: it is the negative logarithm of the acid dissociation constant. Read a low pKa as a group that gives up its proton readily. As for `O=C1C[C@@]2(C(=O)N1)C(=O)N(Cc1ccc(Br)cc1F)C(=O)c1cccn12` [AS-3201, (R)-2-(4-bromo-2-fluorobenzyl)-1,2,3,4-tetrahydropyrrolo[1,2-a]pyrazine-4-spiro-3′-pyrrolidine-1,2′,3,5′-tetrone], the water-solubility result in series [1] is “several”. The same compound returned a pKa in the series “Acidity (pKa) of AS-3201” of 5.6 to 5.8. The “plasma concentration of AS-3201 (variation among individuals)” value in series [2] is “varies widely”. At aldose reductase, the “aldose reductase inhibitory activity” value is reported as “potent”.
